{"source": "patent US6506555B1", "about": "“Use of HIV protease inhibiting compounds” (Institut National de la Sante et de la Recherche Medicale …, priority 1998, dated 2003)", "key": {"[1]": {"test_system": "ubiquitin proteasome pathway", "assay": "Degradation of the proteins with a short lifespan (35S pulse-chase)", "type": "cell-based", "conditions": "cells cultured overnight with variable concentration", "description": "For these analyses, the cells were cultured overnight in the presence of a variable concentration of ritonavir, preincubated in a medium free of methionine and cysteine for 1 hour, subjected to labelling with ^35S-methionine and ^35S-cysteine for one hour, washed in PBS and subjected to a chase for one hour. After one hour, TCA (trichloroacetic acid at 10% final) was added to the supernatant and the radioactivity of the supernatant not precipitated with TCA was quantified with a Lumaplate (Topcount Packard) (FIG. 4A)."}, "Hybridoma FT7.9 (MHC-I)": {"test_system": "Hybridoma FT7.9 (MHC-I)", "assay": "IL-2 release by hybridoma FT7.9 cocultured with NOD pancreatic islets", "type": "cell-based, NOD mice", "description": "Ritonavir (0.6 mg per 10 g of body weight per day) or a placebo (phosphate buffer PBS) was administered by the intraperitoneal route to NOD mice. The pancreatic islets were removed and cultured for 24 hours in the presence or in the absence of 2.5 μg/ml of ritonavir. The cells were then cocultured with MHC-1-restricted hybridomas (FT6.9 and FT7.9 for 24 hours). The quantity of IL-2 was assayed in the supernatant. The following tables present the quantities of IL-2 measured by a test of proliferation (cpm×10^−3)."}, "[2]": {"assay": "Experimental allergic encephalitis in rats", "type": "in vivo, Lewis rats", "parameters": "key to clinical score of EAE: 1: weakness of the movements of the tail; 2: incomplete paralysis of the hindquarters; 3: complete paralysis of the hindquarters; 4: incomplete paralysis of the forequarters; 5: total immobility", "description": "Experimental allergic encephalitis in rats is the only model of multiple sclerosis in humans. The guinea pig MBP (Myelin Basic Protein) is administered to 7-week old female Lewis rats by a subcutaneous injection, into the footpad, of 50 μg of MBP in 100 μl of complete Freund's adjuvant supplemented with 4 μg/ml of mycobacteria. There are administered, in addition, to these rats, daily, either 1 mg, 5 mg or 10 mg of ritonavir, per animal, or a placebo (phosphate buffer) of MBP injection until the animals not treated with ritonavir are killed. The clinical scores measuring the progression of the experimental allergic […] following: 1: weakness of the movements of the tail; 2: incomplete paralysis of the hindquarters; 3: complete paralysis of the hindquarters; 4: incomplete paralysis of the forequarters; and 5: total immobility. About eight days after this immunization with MBP, the control rats started to show the first stages of paralysis (temporary) due to the immune response caused by the administration of myelin."}, "LCMV": {"test_system": "LCMV", "type": "in vivo, mice", "conditions": "day D8; 200 pfu LCMV i.v."}, "[3]": {"biological_target": "T1, 20S proteasomes isolated from murine B8 fibroblasts (Mus musculus, UniProt O55234+P70195+Q60692)", "T1 construct": "20S proteasomes isolated from murine B8 fibroblasts; endogenous in cells; host or cells: murine B8 fibroblasts; 20S proteasome purified from the cells", "assay": "Hydrolysis of fluorogenic substrates by isolated 20S proteasomes", "type": "biochemical", "description": "FIGS. 4B, 4C and 4D show the hydrolysis of the fluorogenic substrate (100 μM Suc-LLVY-MCA, 100 μM (Z)-GGL-MCA and 400 μM Bz-VGR-MCA) of the 20S proteasomes isolated from murine B8 fibroblasts, as a function of variable concentrations of ritonavir and of LLnL (N-acetyl-L-leucinyl-L-leucinal-L-norleucinal, known inhibitor of the proteasome). The results are reported for one hour of digestion with the 20S proteasome (500 ng) in a final volume of 100 μl. The values were located in a linear detection domain and are the mean values of triplicates with standard errors of less than 3%.\nThe hydrolysis of Suc-LLVY-MCA by the 20S murine proteasomes was tested according to the method described in Example 4.2. under identical conditions except for the fact that a different batch of purified proteasomes was used. The hydrolysis of Suc-LLVY-MCA was measured in the presence of increasing concentrations of ritonavir, nelfinavir (Roche), saquinavir (mesylate) and indinavir (active ingredient of Crixivan® marketed by Merck and Sharp and Dohme). The HIV protease inhibitors were dissolved beforehand in ethanol, methanol, DMSO and water respectively, for use in vitro (FIG. 4E)."}, "[4]": {"assay": "Experimental allergic encephalitis in mice and transfer of protection", "type": "in vivo", "description": "In this experiment, healthy recipient mice not treated with ritonavir received, by the intravenous and/or peritoneal route, cells of the lymph nodes and of the spleen obtained from donor mice treated with ritonavir and having been subjected to the protocol for induction of EAE described above in Example a) and adapted to mice.\nThe popliteal, inguinal and mesenteric ganglia and the spleen are removed at D10 after injection of MBP, cultured in the presence of 50 μg/ml of MBP. On the third day of culture, the nonadherent cells are recovered, passed over Ficoll and injected into the recipient mice (10×10^6 injected cells)."}, "MC57 fibroblasts (H-2b)": {"test_system": "MC57 fibroblasts (H-2b)", "conditions": "MC57 cells infected with LCMV, ritonavir 5 μg/ml for 36 hours"}, "[5]": {"test_system": "M113 cells presenting the MART-1 antigen", "assay": "TNFα production by M77-84 T lymphocytes in response to treated M113 melanoma cells", "conditions": "M113 cells cultured 24 hours with various concentrations"}, "CD8+ T lymphocytes": {"test_system": "CD8+ T lymphocytes", "assay": "Proliferation of the CD8+ T lymphocytes in vivo (FACS of splenocytes)", "parameters": "species or system mice", "conditions": "200 pfu LCMV-WE i.v., anti-CD8 FACS"}, "cytotoxic T lymphocytes": {"test_system": "cytotoxic T lymphocytes", "type": "in vivo, C57BL/6 mice", "conditions": "mice infected in the footpad with LCMV-WE; swelling after seven to eight days"}, "class I molecules": {"test_system": "class I molecules", "assay": "Maturation and surface expression of class I molecules", "type": "cell-based"}, "[6]": {"conditions": "in vivo PBS, in vitro ritonavir 2.5 μg/ml"}, "[7]": {"conditions": "in vivo ritonavir, in vitro PBS"}, "[8]": {"conditions": "in vivo ritonavir, in vitro ritonavir"}, "[9]": {"conditions": "100 μM substrate, one hour digestion, 500 ng 20S proteasome"}, "[10]": {"conditions": "patients with hepatic cytolysis (cytolysis +)"}, "[11]": {"conditions": "patients without hepatic cytolysis (cytolysis −)"}}, "note": "Read-outs that look alike come from different tables or passages of the source.", "data": [{"compound": "CC(C)c1nc(CN(C)C(=O)N[C@H](C(=O)N[C@@H](Cc2ccccc2)C[C@H](O)[C@H](Cc2ccccc2)NC(=O)OCc2cncs2)C(C)C)cs1", "note": "[ritonavir]", "values": [{"measurement": "degradation of proteins with a short lifespan", "setting": "[1]", "result": "inhibits in a dose-dependent manner"}, {"measurement": "percentage in brackets (reduction of IL-2 versus PBS/PBS)", "setting": "Hybridoma FT7.9 (MHC-I); [6]", "result": 53, "unit": "%"}, {"measurement": "quantity of IL-2 measured by a test of proliferation", "setting": "Hybridoma FT7.9 (MHC-I); [6]", "result": 43, "unit": "cpm×10^−3"}, {"measurement": "percentage in brackets (reduction of IL-2 versus PBS/PBS)", "setting": "Hybridoma FT7.9 (MHC-I); [7]", "result": 24, "unit": "%"}, {"measurement": "quantity of IL-2 measured by a test of proliferation", "setting": "Hybridoma FT7.9 (MHC-I); [7]", "result": 70, "unit": "cpm×10^−3"}, {"measurement": "percentage in brackets (reduction of IL-2 versus PBS/PBS)", "setting": "Hybridoma FT7.9 (MHC-I); [8]", "result": 20, "unit": "%"}, {"measurement": "quantity of IL-2 measured by a test of proliferation", "setting": "Hybridoma FT7.9 (MHC-I); [8]", "result": 74, "unit": "cpm×10^−3"}, {"measurement": "clinical score of EAE", "setting": "[2]; other rats treated with 10 mg per animal daily", "result": 1}, {"measurement": "development of the disease (EAE)", "setting": "[2]; rats treated with 10 mg per animal daily", "result": "two did not develop the disease"}, {"measurement": "appearance of the first signs of paralysis", "setting": "[2]; rats treated with 1 and 5 mg per animal daily", "result": "delayed"}, {"measurement": "viral clearance (titre of viruses in the spleen)", "setting": "LCMV", "result": "decrease in the viral clearance"}, {"measurement": "hydrolysis of the fluorogenic substrate Suc-LLVY-MCA", "setting": "[3]; [9]", "result": "potent inhibitor"}, {"measurement": "hydrolysis of the substrate (Z)-GGL-MCA", "setting": "[3]; [9]", "result": "hardly affected"}, {"measurement": "cleavage of the substrate Bz-VGR-MCA (\"trypsin\" type activity)", "setting": "[3]; 400 μM substrate, one hour digestion, 500 ng 20S proteasome", "result": "substantially increased"}, {"measurement": "\"chimotrypsin-like\" activity (hydrolysis of Suc-LLVY-MCA), comparison of four HIV-1 protease inhibitors", "setting": "[3]; different batch of purified proteasomes, increasing concentrations", "result": "inhibits"}, {"measurement": "\"chymotrypsin-like\" activity of the proteasome", "setting": "[3]; summary statement", "result": "inhibited"}, {"measurement": "\"trypsin\" activity of the proteasome", "setting": "[3]; summary statement", "result": "increased"}, {"measurement": "symptoms of EAE in recipient mice after transfer of cells from donor mice treated with ritonavir", "setting": "[4]; 10×10^6 lymph node and spleen cells injected, EAE induction at D30 after the transfer", "result": "no symptom of EAE"}, {"measurement": "EAE in mice treated with ritonavir", "setting": "[4]; mouse, in vivo", "result": "Results similar to those described in rats"}, {"measurement": "lysis by the anti-LCMV cytotoxic T lymphocytes", "setting": "MC57 fibroblasts (H-2b)", "result": "strongly inhibits"}, {"measurement": "presentation of MART-1 antigen: release of TNFα by M77-84 T lymphocytes", "setting": "[5]", "result": "inhibition"}, {"measurement": "proliferation of the CD8+ T lymphocytes in response to the LCMV virus", "setting": "CD8+ T lymphocytes", "result": "Inhibition"}, {"measurement": "anti-HCV antibody titre", "setting": "HCV; during the therapy", "result": "increases only in the patients exhibiting cytolysis"}, {"measurement": "patients in whom the ALAT concentrations increased", "setting": "HCV; patients coinfected with HCV and HIV", "result": 57, "unit": "%"}, {"measurement": "Ac index (variation of anti-HCV antibody titre, ratio of the optical densities)", "setting": "HCV; [10]", "result": "2.19(+/−1.68)"}, {"measurement": "variation of CD4", "setting": "HCV; [10]", "result": "109.4(+/−113) cells /mm^3"}, {"measurement": "variation of CD8", "setting": "HCV; [10]", "result": "203.6(+/−650) cells /mm^3"}, {"measurement": "variation of HCV-VL (viral HCV load)", "setting": "HCV; [10]", "result": "+0.61 log10 of copies of RNA/ml"}, {"measurement": "variation of HCV-VL (viral HCV load)", "setting": "HCV; patients with hepatic cytolysis (cytolysis +), listed as RTN", "result": "0.61(+/−0.3) log10 of copies of RNA/ml"}, {"measurement": "Ac index (variation of anti-HCV antibody titre, ratio of the optical densities)", "setting": "HCV; [11]", "result": "0.98(+/−0.24)"}, {"measurement": "variation of CD4", "setting": "HCV; [11]", "result": "88.3(+/−170) cells /mm^3"}, {"measurement": "variation of CD8", "setting": "HCV; [11]", "result": "281.8(+/−394) cells /mm^3"}, {"measurement": "variation of HCV-VL (viral HCV load)", "setting": "HCV; [11]", "result": "+0.22 log10 of copies of RNA/ml"}, {"measurement": "variation of HCV-VL (viral HCV load)", "setting": "HCV; patients without hepatic cytolysis (cytolysis −), listed as RTN", "result": "0.22(+/−0.35) log10 of copies of RNA/ml"}, {"measurement": "ALAT concentration peak, mean maximum value", "setting": "HCV; ritonavir group, third month", "result": 418, "unit": "IU/1"}, {"measurement": "ALAT concentration peak, variation", "setting": "HCV; ritonavir group, third month", "result": "96-1570 IU/1"}, {"measurement": "swelling of the footpad after injection of LCMV", "setting": "cytotoxic T lymphocytes", "result": "markedly inhibited"}, {"measurement": "expression at the surface of the class I molecules", "setting": "class I molecules", "result": "not significantly blocked"}, {"measurement": "maturation of the class I molecules in the endoplasmic reticulum (resistance to endoglycosidase-H)", "setting": "class I molecules", "result": "not significantly blocked"}]}]}
